{"source": "patent US20100267561A1", "about": "“HERBICIDAL PYRIDAZINONE DERIVATIVES” (priority 2007, published 2010)", "format_in_all_cases": "in vivo", "key": {"[1]": {"tested_on": "canarygrass (Phalaris minor)", "assay": "Test B postemergence plant response", "settings": "for Plant response rating, Canarygrass: Postemergence", "how_it_was_run": "(§1)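 Postemergence spray on 1- to 4-leaf plants (2–18 cm); greenhouse 13–15 d; visual rating vs controls, 0 = no effect, 100 = complete control; dash = not tested.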"}, "[2]": {"tested_on": "windgrass (Apera spica-venti)", "assay": "Test B postemergence plant response", "settings": "for Plant response rating, Windgrass: Postemergence", "how_it_was_run": "as §1"}, "[3]": {"tested_on": "winter barley (Hordeum vulgare)", "assay": "Test B postemergence plant response", "settings": "for Plant response rating, Barley: Postemergence", "how_it_was_run": "as §1"}, "[4]": {"tested_on": "Italian ryegrass (Lolium multiflorum)", "assay": "Test C pre-/postemergence plant response", "settings": "Postemergence, scale 0 to 100, 0 no effect, 100 complete control", "how_it_was_run": "(§2)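 Seeds are planted and sprayed preemergence, while established plants at the 1- to 4-leaf stage (2 to 18 cm) receive postemergence sprays of the same surfactant-containing, non-phytotoxic solvent formulation. After 15 to 25 days under controlled conditions, injury is scored visually from 0 (no effect) to 100 (complete control).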"}, "[5]": {"tested_on": "annual bluegrass (Poa annua)", "assay": "Test C pre-/postemergence plant response", "settings": "Postemergence, scale 0 to 100, 0 no effect, 100 complete control", "how_it_was_run": "as §2"}, "[6]": {"tested_on": "blackgrass (Alopecurus myosuroides)", "assay": "Test C pre-/postemergence plant response", "settings": "Postemergence, scale 0 to 100, 0 no effect, 100 complete control", "how_it_was_run": "as §2"}, "[7]": {"tested_on": "canarygrass (Phalaris minor)", "assay": "Test C pre-/postemergence plant response", "settings": "Postemergence, scale 0 to 100, 0 no effect, 100 complete control", "how_it_was_run": "as §2"}, "[8]": {"tested_on": "downy bromegrass (Bromus tectorum)", "assay": "Test C pre-/postemergence plant response", "settings": "Postemergence, scale 0 to 100, 0 no effect, 100 complete control", "how_it_was_run": "as §2"}, "[9]": {"tested_on": "green foxtail (Setaria viridis)", "assay": "Test C pre-/postemergence plant response", "settings": "Postemergence, scale 0 to 100, 0 no effect, 100 complete control", "how_it_was_run": "as §2"}, "[10]": {"tested_on": "pigweed (Amaranthus retroflexus)", "assay": "Test C pre-/postemergence plant response", "settings": "Postemergence, scale 0 to 100, 0 no effect, 100 complete control", "how_it_was_run": "as §2"}, "[11]": {"tested_on": "spring barley (Hordeum vulgare)", "assay": "Test C pre-/postemergence plant response", "settings": "Postemergence, scale 0 to 100, 0 no effect, 100 complete control", "how_it_was_run": "as §2"}, "[12]": {"tested_on": "spring wheat (Triticum aestivum)", "assay": "Test C pre-/postemergence plant response", "settings": "Postemergence, scale 0 to 100, 0 no effect, 100 complete control", "how_it_was_run": "as §2"}, "[13]": {"tested_on": "wild mustard (Sinapis arvensis)", "assay": "Test C pre-/postemergence plant response", "settings": "Postemergence, scale 0 to 100, 0 no effect, 100 complete control", "how_it_was_run": "as §2"}, "wild oat (Avena fatua)": {"tested_on": "wild oat (Avena fatua)", "assay": "Test C pre-/postemergence plant response", "settings": "Postemergence, scale 0 to 100, 0 no effect, 100 complete control", "how_it_was_run": "as §2"}, "[14]": {"tested_on": "windgrass (Apera spica-venti)", "assay": "Test C pre-/postemergence plant response", "settings": "Postemergence, scale 0 to 100, 0 no effect, 100 complete control", "how_it_was_run": "as §2"}, "[15]": {"tested_on": "winter barley (Hordeum vulgare)", "assay": "Test C pre-/postemergence plant response", "settings": "Postemergence, scale 0 to 100, 0 no effect, 100 complete control", "how_it_was_run": "as §2"}, "[16]": {"tested_on": "winter wheat (Triticum aestivum)", "assay": "Test C pre-/postemergence plant response", "settings": "Postemergence, scale 0 to 100, 0 no effect, 100 complete control", "how_it_was_run": "as §2"}, "[17]": {"settings": "8 g ai/ha, postemergence, 0-100 scale"}, "[18]": {"settings": "31 g ai/ha, scale 0 to 100, 0 no effect, 100 complete control"}}}
{"molecule": "CCc1cc(-c2ccc(Cl)c(Cl)c2)nn1-c1c(O)cnn(C)c1=O", "note": "[Compound 20]", "values": [{"measurement": "Canarygrass plant response rating", "setting": "[1]; [17]", "result": 5}, {"measurement": "Plant response rating, Canarygrass", "setting": "[1]; 16 g ai/ha, scale 0 to 100", "result": 30}, {"measurement": "Plant response rating, Canarygrass", "setting": "[1]; [18]", "result": 50}, {"measurement": "Windgrass plant response rating", "setting": "[2]; [17]", "result": 20}, {"measurement": "Plant response rating, Windgrass", "setting": "[2]; 16 g ai/ha, scale 0 to 100", "result": 70}, {"measurement": "Plant response rating, Windgrass", "setting": "[2]; [18]", "result": 85}, {"measurement": "Plant response rating, Windgrass", "setting": "[2]; 62 g ai/ha, scale 0 to 100", "result": 90}, {"measurement": "Barley plant response rating", "setting": "[3]; [17]", "result": 0}, {"measurement": "Plant response rating, Barley", "setting": "[3]; 16 g ai/ha, scale 0 to 100, 0 no effect, 100 complete control", "result": 0}, {"measurement": "Plant response rating, Barley", "setting": "[3]; [18]", "result": 0}, {"measurement": "Plant response rating, Barley", "setting": "[3]; 62 g ai/ha, scale 0 to 100", "result": 0}, {"measurement": "Plant response rating, Ryegrass, Italian", "setting": "[4]; 8 g ai/ha", "result": 65}, {"measurement": "Plant response rating, Ryegrass, Italian", "setting": "[4]; 16 g ai/ha", "result": 80}, {"measurement": "Plant response rating, Ryegrass, Italian", "setting": "[4]; 31 g ai/ha", "result": 95}, {"measurement": "Plant response rating, Ryegrass, Italian", "setting": "[4]; 62 g ai/ha", "result": 98}, {"measurement": "Plant response rating, Bluegrass", "setting": "[5]; 8 g ai/ha", "result": 0}, {"measurement": "Plant response rating, Bluegrass", "setting": "[5]; 16 g ai/ha", "result": 0}, {"measurement": "Plant response rating, Bluegrass", "setting": "[5]; 31 g ai/ha", "result": 0}, {"measurement": "Plant response rating, Bluegrass", "setting": "[5]; 62 g ai/ha", "result": 0}, {"measurement": "Plant response rating, Blackgrass", "setting": "[6]; 8 g ai/ha", "result": 0}, {"measurement": "Plant response rating, Blackgrass", "setting": "[6]; 16 g ai/ha", "result": 35}, {"measurement": "Plant response rating, Blackgrass", "setting": "[6]; 31 g ai/ha", "result": 60}, {"measurement": "Plant response rating, Blackgrass", "setting": "[6]; 62 g ai/ha", "result": 75}, {"measurement": "Plant response rating, Canarygrass", "setting": "[7]; 8 g ai/ha", "result": 10}, {"measurement": "Plant response rating, Canarygrass", "setting": "[7]; 16 g ai/ha", "result": 35}, {"measurement": "Plant response rating, Canarygrass", "setting": "[7]; 31 g ai/ha", "result": 75}, {"measurement": "Plant response rating, Canarygrass", "setting": "[7]; 62 g ai/ha", "result": 95}, {"measurement": "Plant response rating, Bromegrass, Downy", "setting": "[8]; 8 g ai/ha", "result": 0}, {"measurement": "Plant response rating, Bromegrass, Downy", "setting": "[8]; 16 g ai/ha", "result": 0}, {"measurement": "Plant response rating, Bromegrass, Downy", "setting": "[8]; 31 g ai/ha", "result": 0}, {"measurement": "Plant response rating, Bromegrass, Downy", "setting": "[8]; 62 g ai/ha", "result": 10}, {"measurement": "Plant response rating, Foxtail, Green", "setting": "[9]; 8 g ai/ha", "result": 0}, {"measurement": "Plant response rating, Foxtail, Green", "setting": "[9]; 16 g ai/ha", "result": 70}, {"measurement": "Plant response rating, Foxtail, Green", "setting": "[9]; 31 g ai/ha", "result": 80}, {"measurement": "Plant response rating, Foxtail, Green", "setting": "[9]; 62 g ai/ha", "result": 98}, {"measurement": "Plant response rating, Pigweed", "setting": "[10]; 8 g ai/ha", "result": 0}, {"measurement": "Plant response rating, Pigweed", "setting": "[10]; 16 g ai/ha", "result": 0}, {"measurement": "Plant response rating, Pigweed", "setting": "[10]; 31 g ai/ha", "result": 0}, {"measurement": "Plant response rating, Pigweed", "setting": "[10]; 62 g ai/ha", "result": 0}, {"measurement": "Plant response rating, Barley, Spring", "setting": "[11]; 8 g ai/ha", "result": 0}, {"measurement": "Plant response rating, Barley, Spring", "setting": "[11]; 16 g ai/ha", "result": 25}, {"measurement": "Plant response rating, Barley, Spring", "setting": "[11]; 31 g ai/ha", "result": 25}, {"measurement": "Plant response rating, Barley, Spring", "setting": "[11]; 62 g ai/ha", "result": 50}, {"measurement": "Plant response rating, Wheat, Spring", "setting": "[12]; 8 g ai/ha", "result": 0}, {"measurement": "Plant response rating, Wheat, Spring", "setting": "[12]; 16 g ai/ha", "result": 25}, {"measurement": "Plant response rating, Wheat, Spring", "setting": "[12]; 31 g ai/ha", "result": 25}, {"measurement": "Plant response rating, Wheat, Spring", "setting": "[12]; 62 g ai/ha", "result": 60}, {"measurement": "Plant response rating, Mustard, Wild", "setting": "[13]; 8 g ai/ha", "result": 0}, {"measurement": "Plant response rating, Mustard, Wild", "setting": "[13]; 16 g ai/ha", "result": 0}, {"measurement": "Plant response rating, Mustard, Wild", "setting": "[13]; 31 g ai/ha", "result": 0}, {"measurement": "Plant response rating, Mustard, Wild", "setting": "[13]; 62 g ai/ha", "result": 0}, {"measurement": "Plant response rating, Oat, Wild", "setting": "wild oat (Avena fatua); 8 g ai/ha", "result": 10}, {"measurement": "Plant response rating, Oat, Wild", "setting": "wild oat (Avena fatua); 16 g ai/ha", "result": 98}, {"measurement": "Plant response rating, Oat, Wild", "setting": "wild oat (Avena fatua); 31 g ai/ha", "result": 100}, {"measurement": "Plant response rating, Oat, Wild", "setting": "wild oat (Avena fatua); 62 g ai/ha", "result": 100}, {"measurement": "Plant response rating, Windgrass", "setting": "[14]; 8 g ai/ha", "result": 0}, {"measurement": "Plant response rating, Windgrass", "setting": "[14]; 16 g ai/ha", "result": 0}, {"measurement": "Plant response rating, Windgrass", "setting": "[14]; 31 g ai/ha", "result": 50}, {"measurement": "Plant response rating, Windgrass", "setting": "[14]; 62 g ai/ha", "result": 75}, {"measurement": "Plant response rating, Barley, Winter", "setting": "[15]; 8 g ai/ha", "result": 0}, {"measurement": "Plant response rating, Barley, Winter", "setting": "[15]; 16 g ai/ha", "result": 0}, {"measurement": "Plant response rating, Barley, Winter", "setting": "[15]; 31 g ai/ha", "result": 20}, {"measurement": "Plant response rating, Barley, Winter", "setting": "[15]; 62 g ai/ha", "result": 20}, {"measurement": "Plant response rating, Wheat, Winter", "setting": "[16]; 8 g ai/ha", "result": 0}, {"measurement": "Plant response rating, Wheat, Winter", "setting": "[16]; 16 g ai/ha", "result": 20}, {"measurement": "Plant response rating, Wheat, Winter", "setting": "[16]; 31 g ai/ha", "result": 30}, {"measurement": "Plant response rating, Wheat, Winter", "setting": "[16]; 62 g ai/ha", "result": 60}]}
